Assay results published in patent publication US20230374038A1, “MODULATORS OF CYSTIC FIBROSIS TRANSMEMBRANE CONDUCTANCE REGULATOR” (VERTEX PHARMACEUTICALS INCORPORATED, priority 2020, published 2023).
Like-named read-outs stand apart in the source and are kept apart here. Blank lines part the entries; values can stand above or below the molecule they belong to.

Columns and labels:
CFTR [1] = biological target: CFTR (Homo sapiens, UniProt P13569); assay: Membrane Potential Dye, Enteroid Assay B; assay type: cell-based
Chain of CFTR (Homo sapiens, UniProt P13569) (P13569 with tags, fused parts or gaps DEL508-508): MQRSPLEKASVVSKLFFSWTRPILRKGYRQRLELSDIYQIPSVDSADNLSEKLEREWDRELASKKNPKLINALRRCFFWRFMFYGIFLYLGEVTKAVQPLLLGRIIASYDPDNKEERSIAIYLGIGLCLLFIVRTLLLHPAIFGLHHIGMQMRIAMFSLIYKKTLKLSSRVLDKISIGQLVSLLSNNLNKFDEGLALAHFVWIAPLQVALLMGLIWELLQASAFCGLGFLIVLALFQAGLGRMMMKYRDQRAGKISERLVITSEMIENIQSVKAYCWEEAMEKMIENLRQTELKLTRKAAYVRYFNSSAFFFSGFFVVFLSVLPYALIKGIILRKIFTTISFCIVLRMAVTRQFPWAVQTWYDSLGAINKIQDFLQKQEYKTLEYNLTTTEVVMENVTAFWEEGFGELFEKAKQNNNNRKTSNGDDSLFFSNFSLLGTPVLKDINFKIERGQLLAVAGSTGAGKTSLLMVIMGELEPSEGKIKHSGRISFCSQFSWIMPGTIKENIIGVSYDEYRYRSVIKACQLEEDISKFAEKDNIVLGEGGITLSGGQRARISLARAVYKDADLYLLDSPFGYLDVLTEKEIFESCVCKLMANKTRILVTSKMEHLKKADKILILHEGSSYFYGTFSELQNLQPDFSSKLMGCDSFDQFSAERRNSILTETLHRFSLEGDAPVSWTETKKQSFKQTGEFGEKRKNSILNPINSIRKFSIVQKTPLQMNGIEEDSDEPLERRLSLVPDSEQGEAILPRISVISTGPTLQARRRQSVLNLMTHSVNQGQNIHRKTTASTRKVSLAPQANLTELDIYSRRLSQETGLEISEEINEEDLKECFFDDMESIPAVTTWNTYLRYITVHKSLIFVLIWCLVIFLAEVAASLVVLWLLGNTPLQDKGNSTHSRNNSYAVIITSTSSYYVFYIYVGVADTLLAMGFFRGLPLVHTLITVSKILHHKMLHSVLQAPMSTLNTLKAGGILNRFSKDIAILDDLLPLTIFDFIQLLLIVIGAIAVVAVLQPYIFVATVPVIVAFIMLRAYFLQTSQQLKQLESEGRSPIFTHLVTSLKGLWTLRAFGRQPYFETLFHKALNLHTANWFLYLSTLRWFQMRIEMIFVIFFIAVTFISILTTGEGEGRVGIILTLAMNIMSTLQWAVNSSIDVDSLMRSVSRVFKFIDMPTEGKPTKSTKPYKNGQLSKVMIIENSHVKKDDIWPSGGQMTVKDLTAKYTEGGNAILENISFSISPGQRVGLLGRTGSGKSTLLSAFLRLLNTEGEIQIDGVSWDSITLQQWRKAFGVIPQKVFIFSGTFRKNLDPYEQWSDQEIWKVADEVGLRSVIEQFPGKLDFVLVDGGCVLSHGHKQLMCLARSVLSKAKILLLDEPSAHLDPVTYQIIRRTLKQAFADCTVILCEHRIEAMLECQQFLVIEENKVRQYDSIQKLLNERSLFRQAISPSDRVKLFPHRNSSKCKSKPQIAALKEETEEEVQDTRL
Method in brief: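 Human intestinal enteroids seeded at 5000 cells/well, treated with compound 18-24 h at 37 °C, then loaded 25 min with methyl oxonol membrane-potential dye plus CaCC blockers. Chloride transport started in chloride-free buffer with 10 μM forskolin, 100 μM IBMX and 300 nM Compound III, read 15 min; expressed as % of triple-combination control.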

CFTR [2] = biological target: T1, CFTR (Homo sapiens, UniProt P13569, DEL508-508); assay: HBE2 Assay: Ussing chamber assay of CFTR-mediated short-circuit currents in F508del/MF-HBE cells with 44 nM (6R,12R)-17-amino-12-methyl-6,15-bis(trifluoromethyl)-13,19-dioxa-3,4,18-triazatricyclo[12.3.1.12,5]nonadeca-1(18),2,4,14,16-pentaen-6-ol; assay type: cell-based; conditions: 3 μM with 44 nM (6R,12R)-17-amino-12-methyl-6,15-bis(trifluoromethyl)-13,19-dioxa-3,4,18-triazatricyclo[12.3.1.12,5]nonadeca-1(18),2,4,14,16-pentaen-6-ol, 18-24 hours, 20% human serum
T1 construct: endogenous in cells; host or cells: primary human bronchial epithelial cells, F508del/MF genotype
T1 sequence (P13569 with tags, fused parts or gaps DEL508-508): as above
Method: Ussing chamber experiments were performed using human bronchial epithelial (HBE) cells derived from CF subjects heterozygous for F508del and a minimal function CFTR mutation (F508del/MF-HBE) and cultured as previously described (Neuberger T, Burton B, Clark H, Van Goor F Methods Mol Biol 2011:741:39-54). After four days the apical media was removed, and the cells were grown at an air liquid interface for >14 days prior to use.
To isolate the CFTR-mediated short-circuit (ISC) current, F508del/MF-HBE grown on Costar® Snapwell™ cell culture inserts were mounted in an Ussing chamber and the transepithelial ISC was measured under voltage-clamp recording conditions (Vhold=0 mV) at 37° C. The basolateral solution contained (in mM) 145 NaCl, 0.83 K2HPO4, 3.3 KH2PO4, 1.2 MgCl2, 1.2 CaCl2), 10 Glucose, 10 HEPES (pH adjusted to 7.4 with NaOH) and the apical solution contained (in mM) 145 NaGluconate, 1.2 MgCl2, 1.2 CaCl2), 10 glucose, 10 HEPES (pH adjusted to 7.4 with NaOH) and 30 μM amiloride to block the epithelial sodium channel. Forskolin (20 μM) was added to the apical surface to activate CFTR, followed by apical addition of a CFTR inhibitor cocktail consisting of BPO, GlyH-101, and CFTR inhibitor 172 (each at 20 μM final assay concentration) to specifically isolate CFTR currents. The CFTR-mediated ISC (μA/cm^2) for each condition was determined from the peak forskolin response to the steady-state current following inhibition.
The activity of the CFTR corrector compounds on the CFTR-mediated ISC was determined in Ussing chamber studies as described above. The F508del/MF-HBE cell cultures were either incubated with the corrector compounds at a range of concentrations in combination with 44 nM (6R,12R)-17-amino-12-methyl-6,15-bis(trifluoromethyl)-13,19-dioxa-3,4,18-triazatricyclo[12.3.1.12,5]nonadeca-1(18),2,4,14,16-pentaen-6-ol or were incubated with the corrector compounds at a single fixed concentration of 1 and 3 μM in combination with 44 nM (6R,12R)-17-amino-12-methyl-6,15-bis(trifluoromethyl)-13,19-dioxa-3,4,18-triazatricyclo[12.3.1.12,5]nonadeca-1(18),2,4,14,16-pentaen-6-ol for 18-24 hours at 37° C. and in the presence of 20% human serum. The concentration of corrector compounds with 44 nM (6R,12R)-17-amino-12-methyl-6,15-bis(trifluoromethyl)-13,19-dioxa-3,4,18-triazatricyclo[12.3.1.12,5]nonadeca-1(18),2,4,14,16-pentaen-6-ol during the 18-24 hours incubations was kept constant throughout the Ussing chamber measurement of the CFTR-mediated ISC to ensure compounds were present throughout the entire experiment.

SMILES: Cc1cccc(C)c1-c1nc2nc(c1Br)O[C@H](C)CNC(=O)c1cccc(c1)S(=O)(=O)N2
ring closure, isolated yield (from Cc1cccc(C)c1-c1nc(NS(=O)(=O)c2cccc(C(=O)O)c2)nc(O[C@H](C)CN)c1Br, amide bond, 13-membered ring, HATU/HOBt/DIEA, DMF, 31.1 mM, 0.42 h): 54%

SMILES: Cc1cccc(C)c1-c1nc2nc(c1C)OC[C@@H](CC(C)C)N(C1CC3(CCN(C(=O)OC(C)(C)C)CC3)C1)C(=O)c1cccc(c1)S(=O)(=O)N2
ring closure, isolated yield (from Cc1cccc(C)c1-c1nc(NS(=O)(=O)c2cccc(C(=O)O)c2)nc(OC[C@@H](CC(C)C)NC2CC3(CCN(C(=O)OC(C)(C)C)CC3)C2)c1C, amide bond, 13-membered ring, HATU/DIEA, DMF, 9.1 mM, 3.0 h, 2 steps): 46%

SMILES: CCc1c(Cl)nc2nc1Oc1ccc(Cl)c(c1)C(=O)Nc1cccc(c1)S(=O)(=O)N2
ring closure, isolated yield (from CCc1c(Cl)nc(NS(=O)(=O)c2cccc(N)c2)nc1Oc1ccc(Cl)c(C(=O)O)c1, amide bond, 14-membered ring, HATU/DIEA, DMF, 0.42 h, 3 steps): 7%

SMILES: Cc1cccc(C)c1-c1nc2nc(c1C)OC[C@@H](CC(C)C)N(C1CC3(CC(NC(=O)OC(C)(C)C)C3)C1)C(=O)c1cccc(c1)S(=O)(=O)N2 (stereo partly shown)
ring closure, isolated yield (from Cc1cccc(C)c1-c1nc(NS(=O)(=O)c2cccc(C(=O)O)c2)nc(OC[C@@H](CC(C)C)NC2CC3(CC(NC(=O)OC(C)(C)C)C3)C2)c1C, amide bond, 13-membered ring, HATU/DIEA, DMF, 14.1 mM, 3.0 h, 2 steps): 45%

SMILES: Cc1cccc(C)c1-c1nc2nc(c1C)OC[C@@H](CCC(C)(C)O)N(C1CC3(CC3)C1)C(=O)c1cccc(c1)S(=O)(=O)N2 [Compound 106, (11R)-6-(2,6-dimethylphenyl)-11-(3-hydroxy-3-methyl-butyl)-7-methyl-2,2-dioxo-12-spiro[2.3]hexan-5-yl-9-oxa-2λ^6-thia-3,5,12,19-tetrazatricyclo[12.3.1.14,8]nonadeca-1(18),4(19),5,7,14,16-hexaen-13-one]
ring closure, isolated yield (from Cc1cccc(C)c1-c1nc(NS(=O)(=O)c2cccc(C(=O)O)c2)nc(OC[C@@H](CCC(C)(C)O)NC2CC3(CC3)C2)c1C, amide bond, 13-membered ring, T3P/TEA, DMF/EtOAc, 51.6 mM, 17.0 h): 31%
Ent. B Max Activity (CFTR [1]): ++ (++ is 30-60%)
EC50 (CFTR [1]; read-out: Ent. B EC50): 1000 to 3000 nM

SMILES: CC(C)(C)c1c(Cl)nc2nc1OC1CN(Cc3ccccc31)C(=O)c1cccc(c1)S(=O)(=O)N2 (stereo not shown)
ring closure, isolated yield (from CC(C)(C)c1c(Cl)nc(NS(=O)(=O)c2cccc(C(=O)N3Cc4ccccc4C(O)C3)c2)nc1Cl, snar bond, 13-membered ring, NaH, NMP, 8.0 mM, 70.0 °C, 2.0 h): 39%

SMILES: Cc1cccc(C)c1-c1nc2nc(c1Br)OC[C@@H](CC(C)C)N(C1CC3(CC3)C1)C(=O)c1cccc(c1)S(=O)(=O)N2
ring closure, isolated yield (from Cc1cccc(C)c1-c1nc(NS(=O)(=O)c2cccc(C(=O)O)c2)nc(OC[C@@H](CC(C)C)NC2CC3(CC3)C2)c1Br, amide bond, 13-membered ring, HATU/DIEA, NMP, 105.0 mM, 24.0 h): 53%

SMILES: CCc1c(Cl)nc2nc1Oc1cccc(c1)C(=O)Nc1cccc(c1)S(=O)(=O)N2
ring closure, isolated yield (from CCc1c(Cl)nc(NS(=O)(=O)c2cccc(N)c2)nc1Oc1cccc(C(=O)O)c1, amide bond, 14-membered ring, HATU/DIEA, DMF, 53.0 mM, 0.33 h, 2 steps): 19%
ring closure, isolated yield (from CCc1c(Cl)nc(NS(=O)(=O)c2cccc(N)c2)nc1Oc1cccc(C(=O)O)c1, amide bond, 14-membered ring, HATU/DIEA, DMF, 50.0 °C, 2.5 h, 4 steps): 8%

SMILES: C[C@@H]1CC=CCC[C@](OCc2ccccc2)(C(F)(F)F)C2=NN=C(O2)c2nc(c(C(F)(F)F)cc2N(C(=O)OC(C)(C)C)C(=O)OC(C)(C)C)O1 (mixture of isomers)
ring closure, isolated yield (from C=CCC[C@@](OCc1ccccc1)(c1nnc(-c2nc(O[C@H](C)CC=C)c(C(F)(F)F)cc2N(C(=O)OC(C)(C)C)C(=O)OC(C)(C)C)o1)C(F)(F)F, rcm bond, 14-membered ring, Grubbs 1st generation, DCE, 8.92 mM, 75.0 °C, 5.25 h): 53%

Second part, the molecule after the results:

HBE2 Activity at 3 μM (%) (CFTR [2]): +++ (+++ is >60%)
SMILES: Cc1cccc(CC(C)C)c1-c1nc2nc(c1C)OC[C@@H](CC(C)(C)C)N(Cc1cncc(N(C)C3CCC3)n1)C(=O)c1cccc(c1)S(=O)(=O)N2 (atropisomer, axis not shown) [Compound 357]

HBE2 Activity at 3 μM (%) (CFTR [2]): +++ (+++ is >60%)
SMILES: Cc1cccc(C)c1-c1nc2nc(c1F)OC[C@@H](CCC(C)(C)C)N(Cc1cnc3cc(C(C)C)n(C)c3n1)C(=O)c1cccc(c1)S(=O)(=O)N2 [Compound 368]

HBE2 Activity at 3 μM (%) (CFTR [2]): +++ (+++ is >60%)
SMILES: Cc1cccc(CC2CCCCC2)c1-c1nc2nc(c1C)OC[C@@H](CC(C)(C)C)N(Cc1cncc(N(C)C3CCC3)n1)C(=O)c1cccc(c1)S(=O)(=O)N2 [Compound 360]

HBE2 Activity at 3 μM (%) (CFTR [2]): +++ (+++ is >60%)
SMILES: Cc1cccc(C)c1-c1nc2nc(c1F)OC[C@@H](CCC(C)(C)C)N(Cc1cncc(N3CCCC[C@H]3C)n1)C(=O)c1cccc(c1)S(=O)(=O)N2 [Compound 367]

HBE2 Activity at 3 μM (%) (CFTR [2]): +++ (+++ is >60%)
SMILES: Cc1cccc(C)c1-c1nc2cc(c1C(F)(F)F)OC[C@@H](CC(C)(C)C)N(Cc1cncc(N(C)C3CCC3)n1)C(=O)c1cccc(c1)S(=O)(=O)N2 [Compound 363, (11R)-12-[[6-[Cyclobutyl(methyl)amino]pyrazin-2-yl]methyl]-6-(2,6-dimethylphenyl)-11-(2,2-dimethylpropyl)-2,2-dioxo-7-(trifluoromethyl)-9-oxa-2λ^6-thia-3,5,12-triazatricyclo[12.3.1.14,8]nonadeca-1(18),4(19),5,7,14,16-hexaen-13-one]

HBE2 Activity at 3 μM (%) (CFTR [2]): +++ (+++ is >60%)
SMILES: CC(C)=Cc1c(N2C(=O)c3cccc(c3)S(=O)(=O)Nc3nc(c(C)c(-c4c(C)cccc4C)n3)OC[C@H]2CC(C)(C)C)cnn1C [Compound 361, (11R)-6-(2,6-Dimethylphenyl)-11-(2,2-dimethylpropyl)-7-methyl-12-[1-methyl-5-(2-methylprop-1-enyl)pyrazol-4-yl]-2,2-dioxo-9-oxa-2λ^6-thia-3,5,12,19-tetrazatricyclo[12.3.1.14,8]nonadeca-1(18),4(19),5,7,14,16-hexaen-13-one]

HBE2 Activity at 3 μM (%) (CFTR [2]): +++ (+++ is >60%)
SMILES: Cc1cccc(C)c1-c1nc2nc(c1F)OC[C@@H](CCC(C)(C)C)N(Cc1cncc(N(C)C3CCC3)n1)C(=O)c1cccc(c1)S(=O)(=O)N2 [Compound 365]
